Measured values reported in US4011390A, “Semi-synthetic aminocyclitol aminoglycoside antibiotics and methods for the preparation thereof” (Schering-Plough Corporation, priority 1974, dated 1977).
In brackets after ≈: the same amount, converted by molar mass. Read-outs that look alike come from different tables or passages of the source.

Columns and labels:
Bacillus subtilis [1] = experiment: Disc test, Bauer-Kirby technique with 10 Mcg. discs; type: cell-based; conditions: Bacillus subtilis, ATCC6633, strain ATCC 6633
Description: (§1) Disc Test Results (Replicate Tests) With The Mutamicins, Sisomicin and
(§2) Bauer-Kirby Technique^1 With 10 Mcg. Discs
(§3) ^1 Bauer, Kirby, Sherris and Turck, American Journal of Clinical

Escherichia coli [2] = experiment: as above; type: cell-based; conditions: Escherichia coli, read-out: Zone Size
Description: as §1, §2, §3

Klebsiella pneumoniae [3] = experiment: as above; type: cell-based; conditions: Klebsiella pneumoniae
Description: as §1, §2, §3

Providence 164 = experiment: as above; type: cell-based; conditions: strain 164
Description: as §1, §2, §3

Pseudomonas aeruginosa [4] = experiment: as above; type: cell-based; conditions: Pseudomonas aeruginosa
Description: as §1, §2, §3

Staphylococcus aureus [5] = experiment: as above; type: cell-based; conditions: Staphylococcus aureus
Description: as §1, §2, §3

Streptococcus pyogenes [6] = experiment: as above; type: cell-based; conditions: Streptococcus pyogenes
Description: as §1, §2, §3

Aspergillus niger = experiment: MIC in Mueller-Hinton Broth pH 7.2; type: cell-based; conditions: pH 7.2
Description: (§4) In vitro Activity of the Mutamicins and Sisomicin
(§5) MIC's in Mueller-Hinton Broth pH 7.2

Bacillus subtilis [7] = experiment: MIC in Mueller-Hinton Broth pH 7.2; type: cell-based; conditions: ATCC6633, strain ATCC 6633
Description: as §4, §5

Candida albicans = experiment: MIC in Mueller-Hinton Broth pH 7.2; type: cell-based; conditions: pH 7.2
Description: as §4, §5

Escherichia coli [8] = experiment: MIC in Mueller-Hinton Broth pH 7.2; type: cell-based
Description: as §4, §5

Klebsiella pneumoniae [9] = experiment: MIC in Mueller-Hinton Broth pH 7.2; type: cell-based
Description: as §4, §5

Proteus rettgeri = experiment: MIC in Mueller-Hinton Broth pH 7.2; type: cell-based; conditions: Providencia rettgeri, pH 7.2
Description: as §4, §5

Providence = experiment: MIC in Mueller-Hinton Broth pH 7.2; type: cell-based; conditions: strain (Genta. R.) 164
Description: as §4, §5

Pseudomonas aeruginosa [10] = experiment: MIC in Mueller-Hinton Broth pH 7.2; type: cell-based
Description: as §4, §5

Salmonella typhimurium = experiment: MIC in Mueller-Hinton Broth pH 7.2; type: cell-based; conditions: Salmonella enterica, strain B
Description: as §4, §5

Serratia = experiment: MIC in Mueller-Hinton Broth pH 7.2; type: cell-based; conditions: pH 7.2
Description: as §4, §5

Staphylococcus aureus [11] = experiment: MIC in Mueller-Hinton Broth pH 7.2; type: cell-based
Description: as §4, §5

Streptococcus pyogenes [12] = experiment: MIC in Mueller-Hinton Broth pH 7.2; type: cell-based
Description: as §4, §5

Trichophyton rubrum = experiment: MIC in Mueller-Hinton Broth pH 7.2; type: cell-based; conditions: pH 7.2
Description: as §4, §5

Escherichia coli [13] = experiment: Protection Tests in Mice; type: in vivo
Description: (§6) In vivo Activity of the Mutamicin 1 and Sisomicin
(§7) Protection Tests in Mice

Pseudomonas aeruginosa [14] = experiment: Protection Tests in Mice; type: in vivo
Description: as §6, §7

Staphylococcus = experiment: Protection Tests in Mice; type: in vivo; conditions: Staphylococcus Gray, read-out: PD50
Description: as §6, §7

Acute Toxicity = conditions: mouse, in vivo

Work on `CN[C@@H]1[C@@H](O)[C@@H](O[C@@H]2[C@@H](O)[C@H](O[C@H]3OC(CN)=CC[C@H]3N)[C@@H](N)C[C@H]2N)OC[C@]1(C)O` [Sisomicin, O-2,6-Diamino-2,3,4,6-tetradeoxy-α-D-glycero-hex-4-eno-pryanosyl(1→4)-O-[3-deoxy-4-C-methyl-3-(methylamino)-B-L-arabinopyranosyl(1→6)] -2-deoxy-D-streptamine, reference compound] yielded a zone of inhibition at 10 µg/disc (Bacillus subtilis [1]) of 31 mm, a zone of inhibition at 10 µg/disc (Escherichia coli [2]; ATCC10536, strain ATCC 10536, 10 Mcg. discs) of 28 mm and a zone of inhibition at 10 µg/disc (Escherichia coli [2]) of 15 mm. The zone of inhibition at 10 µg/disc (Escherichia coli [2]; strain 589, 10 Mcg. discs) was 24 mm, the zone of inhibition at 10 µg/disc (Escherichia coli [2]; strain JR88, 10 Mcg. discs) was 11 mm and the zone of inhibition at 10 µg/disc (Escherichia coli [2]; strain JR90, 10 Mcg. discs) was 0 mm. For the same compound, the zone of inhibition at 10 µg/disc (Escherichia coli [2]; strain LA290/R55, 10 Mcg. discs) was 13 mm, the zone of inhibition at 10 µg/disc (Escherichia coli [2]; strain Swidinsky 4195, 10 Mcg. discs) was 24 mm and the zone of inhibition at 10 µg/disc (Klebsiella pneumoniae [3]; strain Ad 17) was 22 mm. The zone of inhibition at 10 µg/disc (Klebsiella pneumoniae [3]; strain Ad 18) was 23 mm, the zone of inhibition at 10 µg/disc (Klebsiella pneumoniae [3]; strain Georgetown 3020) was 13 mm and the zone of inhibition at 10 µg/disc (Klebsiella pneumoniae [3]; strain Georgetown 3694) was 14 mm. The zone of inhibition at 10 µg/disc (Providence 164) was 13 mm, the zone of inhibition at 10 µg/disc (Pseudomonas aeruginosa [4]; strain Capetown 18) was 14 mm and the zone of inhibition at 10 µg/disc (Pseudomonas aeruginosa [4]; strain D-2) was 24 mm. It also gave a zone of inhibition at 10 µg/disc (Pseudomonas aeruginosa [4]; strain St. Michael 413) of 26 mm, a zone of inhibition at 10 µg/disc (Pseudomonas aeruginosa [4]; strain St. Michael 762) of 25 mm and a zone of inhibition at 10 µg/disc (Pseudomonas aeruginosa [4]; strain St. Michael 1262) of 26 mm. For the same compound, the zone of inhibition at 10 µg/disc (Pseudomonas aeruginosa [4]; strain St. Michael 1395) was 26 mm, the zone of inhibition at 10 µg/disc (Pseudomonas aeruginosa [4]; strain Stone 20) was 27 mm and the zone of inhibition at 10 µg/disc (Pseudomonas aeruginosa [4]; strain Stone 39) was 25 mm. For the same compound, the zone of inhibition at 10 µg/disc (Pseudomonas aeruginosa [4]; strain Stone 130) was 14 mm, the zone of inhibition at 10 µg/disc (Pseudomonas aeruginosa [4]; strain Stone 138) was 10 mm and the zone of inhibition at 10 µg/disc (Staphylococcus aureus [5]; ATCC6538P, strain ATCC 6538P) was 25 mm. It also gave a zone of inhibition at 10 µg/disc (Staphylococcus aureus [5]; strain 59N) of 28 mm, a zone of inhibition at 10 µg/disc (Staphylococcus aureus [5]; strain Wood) of 29 mm and a zone of inhibition at 10 µg/disc (Staphylococcus aureus [5]; strain Ziegler) of 26 mm. It also gave a zone of inhibition at 10 µg/disc (Streptococcus pyogenes [6]; strain B-Cruz) of 15 mm, a zone of inhibition at 10 µg/disc (Streptococcus pyogenes [6]; strain C) of 13 mm and an MIC (Aspergillus niger) of over 25 µg/mL. For the same compound, the MIC (Bacillus subtilis [7]) was 0.03 µg/mL (≈ 0.067 µM), the MIC (Candida albicans) was over 25 µg/mL and the MIC (Escherichia coli [8]; ATCC10536, pH 7.2, strain ATCC 10536) was 0.08 µg/mL (≈ 0.179 µM). The MIC (Escherichia coli [8]; pH 7.2, strain Baker 2) was 0.3 µg/mL (≈ 0.67 µM), the MIC (Escherichia coli [8]; pH 7.2, strain Fl4-Bk) was 0.3 µg/mL (≈ 0.67 µM) and the MIC (Escherichia coli [8]; pH 7.2, strain Genta. adenyl LA290-R55) was 17.5 µg/mL (≈ 39.1 µM). It also gave an MIC (Escherichia coli [8]; pH 7.2, strain Genta. adenyl W677/R55) of 7.5 µg/mL (≈ 16.8 µM), an MIC (Escherichia coli [8]; pH 7.2, strain Kana. phosphor. 589) of 0.8 µg/mL (≈ 1.79 µM) and an MIC (Escherichia coli [8]; pH 7.2, strain Kana. phosphor. C-13) of 0.3 µg/mL (≈ 0.67 µM). For the same compound, the MIC (Escherichia coli [8]; pH 7.2, strain Tobra. R 4195) was 0.8 µg/mL (≈ 1.79 µM), the MIC (Klebsiella pneumoniae [9]; pH 7.2, strain Ad 18) was 0.08 µg/mL (≈ 0.179 µM) and the MIC (Klebsiella pneumoniae [9]; pH 7.2, strain Genta. adenyl 121) was 0.08 µg/mL (≈ 0.179 µM). It also gave an MIC (Klebsiella pneumoniae [9]; pH 7.2, strain Genta. adenyl 3020) of 7.5 µg/mL (≈ 16.8 µM), an MIC (Klebsiella pneumoniae [9]; pH 7.2, strain Genta. adenyl 3694) of 7.5 µg/mL (≈ 16.8 µM) and an MIC (Klebsiella pneumoniae [9]; pH 7.2, strain Kana. phos. Ad 22) of 0.3 µg/mL (≈ 0.67 µM). The MIC (Proteus rettgeri) was 0.8 µg/mL (≈ 1.79 µM), the MIC (Providence) was over 25 µg/mL and the MIC (Pseudomonas aeruginosa [10]; pH 7.2) was over 25 µg/mL. It also gave an MIC (Pseudomonas aeruginosa [10]; pH 7.2, strain 762, Mueller-Hinton Broth pH 7.2, read-out: MIC) of 0.3 µg/mL (≈ 0.67 µM), an MIC (Pseudomonas aeruginosa [10]; pH 7.2, strain 1262, Mueller-Hinton Broth pH 7.2, read-out: MIC) of 0.8 µg/mL (≈ 1.79 µM) and an MIC (Pseudomonas aeruginosa [10]; pH 7.2, strain 1395, Mueller-Hinton Broth pH 7.2, read-out: MIC) of 0.08 µg/mL (≈ 0.179 µM). The MIC (Pseudomonas aeruginosa [10]; pH 7.2, strain D-2, Mueller-Hinton Broth pH 7.2, read-out: MIC) was 0.08 µg/mL (≈ 0.179 µM), the MIC (Pseudomonas aeruginosa [10]; pH 7.2, strain Genta. acetyl Capetown 18, Mueller-Hinton Broth pH 7.2, read-out: MIC) was 7.5 µg/mL (≈ 16.8 µM) and the MIC (Pseudomonas aeruginosa [10]; pH 7.2, strain Genta. acetyl Stone 130, Mueller-Hinton Broth pH 7.2, read-out: MIC) was 17.5 µg/mL (≈ 39.1 µM). The MIC (Pseudomonas aeruginosa [10]; pH 7.2, strain NRRL B3223, Mueller-Hinton Broth pH 7.2, read-out: MIC) was 0.08 µg/mL (≈ 0.179 µM), the MIC (Pseudomonas aeruginosa [10]; pH 7.2, strain Stone 20, Mueller-Hinton Broth pH 7.2, read-out: MIC) was 0.3 µg/mL (≈ 0.67 µM) and the MIC (Pseudomonas aeruginosa [10]; pH 7.2, strain Stone 39, Mueller-Hinton Broth pH 7.2, read-out: MIC) was 0.8 µg/mL (≈ 1.79 µM). For the same compound, the MIC (Pseudomonas aeruginosa [10]; pH 7.2, strain Stone 138, Mueller-Hinton Broth pH 7.2, read-out: MIC) was 7.5 µg/mL (≈ 16.8 µM), the MIC (Salmonella typhimurium) was 0.3 µg/mL (≈ 0.67 µM) and the MIC (Serratia) was 0.8 µg/mL (≈ 1.79 µM). It also gave an MIC (Staphylococcus aureus [11]; ATCC6538P, pH 7.2, strain ATCC 6538P) of 0.08 µg/mL (≈ 0.179 µM), an MIC (Staphylococcus aureus [11]; pH 7.2, strain 59N) of 0.03 µg/mL (≈ 0.067 µM) and an MIC (Staphylococcus aureus [11]; pH 7.2, strain 1118) of 3 µg/mL (≈ 6.7 µM). It also gave an MIC (Staphylococcus aureus [11]; pH 7.2, strain Grey) of 3 µg/mL (≈ 6.7 µM), an MIC (Staphylococcus aureus [11]; pH 7.2, strain Wood) of 0.03 µg/mL (≈ 0.067 µM) and an MIC (Staphylococcus aureus [11]; pH 7.2, strain Ziegler) of 0.08 µg/mL (≈ 0.179 µM). The MIC (Streptococcus pyogenes [12]; pH 7.2, strain 27) was 3 µg/mL (≈ 6.7 µM), the MIC (Streptococcus pyogenes [12]; pH 7.2, strain Alvarez) was 3 µg/mL (≈ 6.7 µM) and the MIC (Streptococcus pyogenes [12]; pH 7.2, strain C) was 3 µg/mL (≈ 6.7 µM). For the same compound, the MIC (Streptococcus pyogenes [12]; pH 7.2, strain Cruz) was 3 µg/mL (≈ 6.7 µM), the MIC (Streptococcus pyogenes [12]; pH 7.2, strain Karipeds) was 0.8 µg/mL (≈ 1.79 µM) and the MIC (Streptococcus pyogenes [12]; pH 7.2, strain Labay) was 3 µg/mL (≈ 6.7 µM). The MIC (Trichophyton rubrum) was over 25 µg/mL, the ED50 (Escherichia coli [13]; Escherichia coli 6922, read-out: PD50) was 2 mg/kg and the ED50 (Escherichia coli [13]; Escherichia coli Sc., read-out: PD50) was 1.7 mg/kg. It also gave an ED50 (Pseudomonas aeruginosa [14]; Pseudomonas aeruginosa 2552, read-out: PD50) of 2.8 mg/kg, an ED50 (Pseudomonas aeruginosa [14]; Pseudomonas aeruginosa 2557, read-out: PD50) of 2.7 mg/kg and an ED50 (Pseudomonas aeruginosa [14]; sc, Pseudomonas aeruginosa Sc., read-out: PD50) of 1.1 mg/kg. It also gave an ED50 (Staphylococcus) of 1.8 mg/kg, an LD50 (Acute Toxicity; ip) of 190 mg/kg and an LD50 (Acute Toxicity; iv) of 34 mg/kg.
